Read-outs that look alike come from different tables or passages of the source.
What was measured:
[1] = tested on: ovariectomized (OVX) rats; assay: Serum cholesterol level in ovariectomized (OVX) rats after 4 weeks dosing; type: in vivo, rat; details: for Cholesterol level (mmol/1) in serum: OVX rat, n=8 (Sham 3.8 ± 0.4; OVX 4.6 ± 0.7); for Effect on cholesterol (in words): summary statement referring to Table 4
Excerpt: (§1) Compounds were given p.o. to female rats for 4 or 5 weeks daily. At the end a blood sample was taken. Serum was separated by centrifugation and frozen until analyzed for total amount of cholesterol. Bone samples were taken from vertebra and tibia. Physical strength of the bones was studied as described by Peng et al, 1994. The assessments of the bone included: • Ash weight of tibial epiphyses • Epiphyses of one tibia was carefully prepared and burned. Samples were burned to remove water and organic material. Ash weight relates to the mineral content of the bone. In addition, bone samples were taken to study the histomorphometry. In some cases the bone formation was studied by injecting tetracycline (50 mg/kg i.p. 10 days before autopsy) and calcein (20 mg/kg i.p. 3 days before autopsy). The method is based on permanent binding of tetracycline into growing bone and its detection by fluorescence (Peng et al, 1994).

[2] = tested on: ovariectomized rats; details: 3.0 mg/kg peroral daily, 4 weeks, ovariectomized rats (Sham 0.497 ± 0.103; Ovariectomized 0.099 ± 0.016)
[3] = tested on: MCF-7 cells; assay: cells; details: for inhibition at 1 µM / Emax / cytotoxicity at 10 µM: Homo sapiens, MCF7, 96 h; for inhibition at 1 µM: read-out: Antagonism at 1 µM (% of full antagonism); for Emax: read-out: Maximal Agonism (% of E2); for cytotoxicity at 10 µM: toxicity at 10 µmol/l, 100 = all cells dead
Procedure: For experiments involving hormone or anti-hormone treatment, the cells in exponential growth phase were precultivated in the absence of estradiol for one day. […] After the incubation period the medium was removed. The exposure to study drugs was started immediately by adding fresh medium with 5 % stripped serum. Half of the cells were grown with estradiol, half without estradiol. Study compounds (dissolved in ethanol in 0.01 M concentration and diluted with the growth medium as appropriate) were added. The final concentrations of the compounds were 1,10, and 100 nM, and 1 and 10 µM. The cells were incubated for four days.
This method allows evaluation of estrogenicity based on the ability of the compounds to stimulate the growth of the estrogen-dependent cells in the absence of estradiol. Estrogenicity was estimated by comparing the maximal growth stimulus (at any concentration) of study compound as per cent from growth stimulus by estradiol (100 % stimulus). […] At high concentrations molecules may also show toxicity. Toxicity was estimated as the fraction of dead cells (i.e. 100 % means that all cells have died during the exposure).

[4] = tested on: immature female rats; assay: 3 day uterotropic assay in immature female rats (given alone and with estradiol); type: in vivo; details: 3 days, immature female rats
Procedure: The values are given at two dose levels, low i.e. 3―5 mg/kg and high i.e. 10―50 mg/kg. Estrogenic activity can be estimated also after a 4 weeks' treatment of ovariectomized rats based on the uterine size.

[5] = tested on: ovariectomized rats; assay: Strength of femoral neck (cantilever bending test) in ovariectomized rats after 4 weeks dosing; type: in vivo; details: 3.0 mg/kg p.o., beginning one week after ovariectomy (Sham 86.7 ± 10.4; OVX 68.4 ± 8.5), * = p < 0.05 vs ovariectomized
Excerpt: as §1
The mechanical testing of bones was carried out by materials testing machine, constructed in-house at Oulu University (Technical Services Department of the Medical Faculty). The testing machine is based on lever arm principle. One end of a steel lever is fixed. […] Compressive force is measured by a temperature-compensated force sensor, which is attached to the stationary part of the compression stage. […]
The maximal load on the femoral neck was measured by the cantilever bending test. […]

[6] = tested on: ovariectomized rats; assay: Ash weight of tibial epiphyses in ovariectomized rats after 4 weeks dosing; type: in vivo; details: 3.0 mg/kg p.o., beginning one week after ovariectomy (Sham 34.0 ± 2.9; OVX 32.2 ± 2.8), * = p < 0.05 vs ovariectomized
Excerpt: as §1

[7] = read-out: Maximal Cell Kill (% fraction of dead cells), With estradiol (E2)
[8] = read-out: Maximal Cell Kill (% fraction of dead cells), Without estradiol (E2)
[9] = summary statement referring to Table 2

SMILES	Cholesterol level (mmol/1) in serum ([1]; 3 mg/kg, 4 weeks dosing)	Effect on ovariectomy-induced increase of serum cholesterol level (in words) ([1]; OVX rats, 4 weeks dosing)	Effect on cholesterol (in words) [1]	Uterine size [2]	inhibition at 1 µM [3]	Emax [3]	cytotoxicity at 10 µM [3, 7]	cytotoxicity at 10 µM [3, 8]	Kill of MCF-7 cells (in words) ([3]; highest investigated concentration (10 µM), Table 2)	Hormonal activity (in words) [3, 9]	Estrogenic and antiestrogenic action (in words) ([3]; summary statement referring to Tables 2, 3 and 4)	Estrogen antagonism (% inhibition of estradiol) Given with estradiol ([4]; dose 3–5 mg/kg)	Uterotropic effect (% of estradiol) Given without estradiol ([4]; dose 3–5 mg/kg)	Estrogen antagonism (% inhibition of estradiol) Given with estradiol ([4]; dose 10–50 mg/kg)	Uterotropic effect (% of estradiol) Given without estradiol ([4]; dose 10–50 mg/kg)	Maximal load (N) of femoral neck [5]	Ash weight (mg) of tibial epiphyses [6]	Cytotoxic action (in words) [3, 9]	Cholesterol level (mmol/1) in serum ([1]; 3 µg/kg, 4 weeks dosing)
CN(C)CCOc1ccc(/C(=C(/CCCl)c2ccccc2)c2ccc(Cl)cc2)cc1 [No. 3, (E)-(2-{4-[4-Chloro-1-(4-chlorophenyl)-2-phenylbut-1-enyl]phenoxy}-ethyl)dimethylamine]	3.1 ± 0.4 mmol/1	can prevent this increase even at very low dose and decrease the level below the sham operated level	decrease cholesterol	0.140 ± 0.006 g	1%	1%	94%	100%	kill MCF-7 cells (human breast cancer cells) effectively	weak hormonal activity	weak estrogenic and no antiestrogenic action	65 % inhibition of estradiol	44 % of estradiol	38 % inhibition of estradiol	54 % of estradiol	92.5±11.1* N	36.0±3.4* mg	–	–
CN(C)CCOc1cccc(/C(=C(/CCCl)c2ccccc2)c2ccccc2)c1 [No. 33, (Z)-{2-[3-(4-Chloro-1,2-diphenylbut-1-enyl)phenoxy]ethyl}dimethylamine]	–	–	decrease cholesterol	–	58%	–	80%	0%	–	–	–	–	–	–	–	–	–	weak	–
O=C(c1ccc(OCCN2CCCCC2)cc1)c1c(-c2ccc(O)cc2)sc2cc(O)ccc12 [Raloxifene, reference compound]	–	–	–	0.141 ± 0.021 g	–	–	–	–	–	–	–	90 % inhibition of estradiol	11 % of estradiol	92 % inhibition of estradiol	13 % of estradiol	84.2 ± 18.4* N	34.9 ± 3.5 mg	–	–
CN(C)CCOc1ccc(/C(=C(/CCCl)c2ccccc2)c2ccccc2)cc1 [Toremifene, 4-chloro-1,2-diphenyl-1-[4-[2-(N,N-dimethylamino)ethoxy]phenyl]-1-butene, Z-isomer, reference compound]	–	–	–	–	44%	37%	100%	100%	–	–	–	45 % inhibition of estradiol	26 % of estradiol	58 % inhibition of estradiol	44 % of estradiol	–	–	–	–
C[C@]12CC[C@@H]3c4ccc(O)cc4CC[C@H]3[C@@H]1CC[C@@H]2O [estradiol, reference compound]	–	–	–	–	–	–	–	–	–	–	–	–	–	–	–	–	–	–	4.0 ± 0.4 mmol/1
